Here are results for 15 molecules from patent publication US20260108521A1, “GSPT1 DEGRADERS, COMPOSITIONS COMPRISING THE DEGRADER, AND METHODS OF USING THE SAME” (BIOFRONT LTD, priority 2022, published 2026).

Each structure is given as a SMILES string. pIC50: −log10 of the molar value. Some results are limits rather than exact numbers.

One assay has as its target T1, GSPT1 protein (Homo sapiens, UniProt P15170+Q96SW2).
T1 construct: endogenous in cells; host or cells: HL-60 cells
Kind of assay: GSPT1 degradation assay (western blot) in HL-60 cells. Conditions: GSPT1 protein level, 2h incubation, western blot normalized to beta-Actin; for inhibition at 0.1 µM: 0.1 μM compound; for inhibition at 1 µM: 1 μM compound. Type of assay: cell-based. The method, then: HL-60 cells (4×10^^6 cells/well) were seeded in 6-well culture plate (Costar, 3516) and treated with a variety of concentrations of test compound. After 2h incubation, cells were collected and lysed. The protein concentration was determined by BCA protein assay kit from Thermo (23227). The GSPT1 protein level was determined by western blots, using GSPT1 polyclonal antibody. Proteins were loaded into each well of the pre-casting gels and subjected to electrophoretic separation by SDS-PAGE. The protein resolved by SDS-PAGE were transferred to PVDF, blocked by 5% skim milk and probed with anti-GSPT1 antibody (Proteintech, 10763-1-AP) or anti-β-actin antibody (CST, 3700S), using following standard western blotting procedure. Blots intensities were quantified using ImageJ software and the intensity of GSPT1 bands were normalized to beta-Actin bands, respectively. The GSPT1 degradation results were then calculated. Reported compound C84971 (see WO2021126974A1 and WO2021126973A1) was used as a reference.
A general note: In western blotting, separated proteins are transferred to a membrane and probed.

The subject of a further assay is HL-60 cells. The assay can be described thus: Cell viability assay (CellTiter-Glo). Conditions: Homo sapiens, 72 h incubation, 6-point serial dilution. Type of assay: cell-based. The method, then:
HL-60 cells were seeded at a density of 7000 cells per well in 96-well culture plates (Corning 3903) with IMDM and treated with test compounds following a 6-point serial dilution. RPMI 1640 (0.1% DMSO) was used as control for each well. After 72 h incubation, cell viability was determined using the CellTiter-Glo assay kit (Promega, G9242) according to the manufacturer's instructions. The dose-response curves were determined and IC50 values were calculated using the GraphPad Prism software following a nonlinear regression method.
For orientation: In ATP-based viability assays light output follows the ATP content of the culture.

T1 sequence (P15170 whole entry): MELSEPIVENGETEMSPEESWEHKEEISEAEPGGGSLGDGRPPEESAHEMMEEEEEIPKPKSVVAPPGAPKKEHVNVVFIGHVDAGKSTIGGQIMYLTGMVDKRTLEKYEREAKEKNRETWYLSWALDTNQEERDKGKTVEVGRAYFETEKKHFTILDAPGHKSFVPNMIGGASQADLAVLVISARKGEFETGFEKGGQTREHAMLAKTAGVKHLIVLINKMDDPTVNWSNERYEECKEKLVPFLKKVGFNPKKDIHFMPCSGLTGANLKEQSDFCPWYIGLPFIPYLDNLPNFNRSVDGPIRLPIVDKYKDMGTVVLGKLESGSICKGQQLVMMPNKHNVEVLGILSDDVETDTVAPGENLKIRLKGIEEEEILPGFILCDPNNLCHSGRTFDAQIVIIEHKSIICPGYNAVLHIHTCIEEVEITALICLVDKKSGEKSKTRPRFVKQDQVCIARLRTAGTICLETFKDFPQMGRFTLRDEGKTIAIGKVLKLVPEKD
T1 sequence (Q96SW2 whole entry): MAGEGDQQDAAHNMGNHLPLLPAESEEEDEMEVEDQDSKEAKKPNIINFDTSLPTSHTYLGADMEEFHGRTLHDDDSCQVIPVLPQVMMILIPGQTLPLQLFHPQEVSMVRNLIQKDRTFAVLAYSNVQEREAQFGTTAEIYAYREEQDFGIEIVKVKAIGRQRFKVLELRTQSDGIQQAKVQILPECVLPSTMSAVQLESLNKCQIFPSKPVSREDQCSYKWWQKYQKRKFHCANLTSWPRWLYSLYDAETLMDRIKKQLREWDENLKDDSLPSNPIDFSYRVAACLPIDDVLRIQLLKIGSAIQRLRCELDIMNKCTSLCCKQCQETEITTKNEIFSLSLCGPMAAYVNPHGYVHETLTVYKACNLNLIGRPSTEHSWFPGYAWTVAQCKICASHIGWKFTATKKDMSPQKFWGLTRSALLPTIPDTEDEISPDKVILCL
T1 sequence (Q16531 whole entry partner): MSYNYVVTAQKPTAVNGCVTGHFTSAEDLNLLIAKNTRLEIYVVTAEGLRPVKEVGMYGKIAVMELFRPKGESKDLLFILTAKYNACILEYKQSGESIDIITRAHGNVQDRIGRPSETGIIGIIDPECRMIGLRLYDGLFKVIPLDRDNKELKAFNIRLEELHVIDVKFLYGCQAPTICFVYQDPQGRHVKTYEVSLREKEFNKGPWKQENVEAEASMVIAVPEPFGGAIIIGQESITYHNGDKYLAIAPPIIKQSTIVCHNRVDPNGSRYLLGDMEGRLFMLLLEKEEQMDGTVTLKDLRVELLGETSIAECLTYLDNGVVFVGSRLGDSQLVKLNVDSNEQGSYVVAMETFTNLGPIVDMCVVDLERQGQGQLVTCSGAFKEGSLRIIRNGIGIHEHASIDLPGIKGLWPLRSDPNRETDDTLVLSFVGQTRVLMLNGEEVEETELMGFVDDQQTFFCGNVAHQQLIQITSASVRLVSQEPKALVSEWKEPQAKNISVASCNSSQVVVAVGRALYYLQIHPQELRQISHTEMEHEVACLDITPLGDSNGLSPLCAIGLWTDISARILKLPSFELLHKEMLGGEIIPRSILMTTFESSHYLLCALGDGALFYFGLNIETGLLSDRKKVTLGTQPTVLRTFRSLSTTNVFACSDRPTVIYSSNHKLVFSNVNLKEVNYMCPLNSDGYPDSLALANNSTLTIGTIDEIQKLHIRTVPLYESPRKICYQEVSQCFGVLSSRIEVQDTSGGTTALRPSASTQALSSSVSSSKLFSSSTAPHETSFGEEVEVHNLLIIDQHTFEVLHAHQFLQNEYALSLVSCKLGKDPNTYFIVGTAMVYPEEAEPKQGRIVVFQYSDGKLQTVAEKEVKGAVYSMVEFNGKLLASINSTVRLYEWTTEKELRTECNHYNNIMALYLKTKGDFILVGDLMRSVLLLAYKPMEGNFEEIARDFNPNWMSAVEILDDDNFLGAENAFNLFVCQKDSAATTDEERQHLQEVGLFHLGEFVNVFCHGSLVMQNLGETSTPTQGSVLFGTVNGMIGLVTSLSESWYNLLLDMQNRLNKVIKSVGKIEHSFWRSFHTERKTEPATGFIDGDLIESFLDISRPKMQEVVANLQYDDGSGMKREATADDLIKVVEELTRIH

Broadly, the inhibition is the share of the control response that was lost under treatment. For orientation: pIC50 means the negative decadic logarithm of the IC50, by convention in mol/L. In the case of `O=C1CCC(N2C(=O)c3ccc(N4CCC(CN5CCCCN(c6ccccc6)C5=O)CC4)cc3C2=O)C(=O)N1` (stereo not drawn) [Compound 6, 2-(2,6-dioxopiperidin-3-yl)-5-(4-((2-oxo-3-phenyl-1,3-diazepan-1-yl)methyl)piperidin-1-yl)isoindoline-1,3-dione], at GSPT1 protein, the inhibition at 0.1 µM amounted to 46% and the inhibition at 1 µM came out at 52%. The same molecule showed a negative-log IC50 (pIC50) with HL-60 cells of 6.40.

At GSPT1 protein, `O=C1CCC(N2C(=O)c3ccc(N4CC(CCN5CCCN(c6cccc(-c7cnccc7Cl)c6)C5=O)C4)cc3C2=O)C(=O)N1` (stereo not drawn) [Compound 8, 5-(3-(2-(3-(3-(4-chloropyridin-3-yl)phenyl)-2-oxotetrahydropyrimidin-1(2H)-yl)ethyl)azetidin-1-yl)-2-(2,6-dioxopiperidin-3-yl)isoindoline-1,3-dione] yielded an inhibition at 0.1 µM of 70% and an inhibition at 1 µM of 63%. The molecule further showed a pIC50 with HL-60 cells of 6.71.

For the molecule `O=C1CCC(N2C(=O)c3ccc(N4CCC(CN5CCCN(c6cccc(Br)c6)C5=O)CC4)cc3C2=O)C(=O)N1` (stereo not drawn) [Compound 9, 5-(4-((3-(3-bromophenyl)-2-oxotetrahydropyrimidin-1(2H)-yl)methyl)piperidin-1-yl)-2-(2,6-dioxopiperidin-3-yl)isoindoline-1,3-dione], at GSPT1 protein, 0.1 µM produced 0% inhibition and 1 µM produced 15% inhibition. The same molecule had a pIC50 with HL-60 cells of under 6.00.

For `O=C1CCC(N2C(=O)c3ccc(N4CC(CCN5CCCN(c6cccc(Br)c6)C5=O)C4)cc3C2=O)C(=O)N1` (stereo not drawn) [Compound 10, 5-(3-(2-(3-(3-bromophenyl)-2-oxotetrahydropyrimidin-1(2H)-yl)ethyl)azetidin-1-yl)-2-(2,6-dioxopiperidin-3-yl)isoindoline-1,3-dione], at GSPT1 protein, the inhibition at 0.1 µM amounted to 40% and at 1 µM the inhibition was 45%. Moreover, in the assay with HL-60 cells, the pIC50 is 6.84.

Take `O=C1CCC(N2C(=O)c3ccc(N4CCC(CN5CCCN(c6ccc7ncccc7c6)C5=O)CC4)cc3C2=O)C(=O)N1` (stereo not drawn) [Compound 11, 2-(2,6-dioxopiperidin-3-yl)-5-(4-((2-oxo-3-(quinolin-6-yl)tetrahydropyrimidin-1(2H)-yl)methyl)piperidin-1-yl)isoindoline-1,3-dione]: at GSPT1 protein, the inhibition at 0.1 µM is 14% and the inhibition at 1 µM is under 5%. Moreover, the pIC50 in the assay on HL-60 cells is under 6.00.

For the molecule `O=C1CCC(N2C(=O)c3ccc(N4CC(CCN5CCN(c6ccccc6)C5=O)C4)cc3C2=O)C(=O)N1` (stereo not drawn) [Compound 12, 2-(2,6-dioxopiperidin-3-yl)-5-(3-(2-(2-oxo-3-phenylimidazolidin-1-yl)ethyl)azetidin-1-yl)isoindoline-1,3-dione], on GSPT1 protein, the inhibition at 0.1 µM was 0% and the inhibition at 1 µM is 0%. This molecule also gave a pIC50 in the assay with HL-60 cells of under 6.00.

On GSPT1 protein, `O=C1CCC(N2C(=O)c3ccc(N4CCC(CN5CCCN(c6cccc(C7CC7)c6)C5=O)CC4)cc3C2=O)C(=O)N1` (stereo not drawn) [Compound 15, 5-(4-((3-(3-cyclopropylphenyl)-2-oxotetrahydropyrimidin-1(2H)-yl)methyl)piperidin-1-yl)-2-(2,6-dioxopiperidin-3-yl)isoindoline-1,3-dione] came in with an inhibition at 0.1 µM of 30% and an inhibition at 1 µM of 57%. This molecule also had a pIC50 with HL-60 cells of 6.54.

At GSPT1 protein, `O=C1CCC(N2Cc3cc(N4CCC(CN5CCCN(c6ccccc6)C5=O)CC4)ccc3C2=O)C(=O)N1` (stereo not drawn) [Compound 19, 3-(1-oxo-5-(4-((2-oxo-3-phenyltetrahydropyrimidin-1(2H)-yl)methyl)piperidin-1-yl)isoindolin-2-yl)piperidine-2,6-dione] showed an inhibition at 0.1 µM of 15% and an inhibition at 1 µM of 38%. Also, the pIC50 in the assay with HL-60 cells was under 6.00.

With `O=C1CCC(N2C(=O)c3ccc(N4CC(CCN5CCCN(c6cccc(-c7cnc8c(cnn8C8CC8)c7)c6)C5=O)C4)cc3C2=O)C(=O)N1` (stereo not drawn) [Compound 22, 5-(3-(2-(3-(3-(1-cyclopropyl-1H-pyrazolo[3,4-b]pyridin-5-yl)phenyl)-2-oxotetrahydropyrimidin-1(2H)-yl)ethyl)azetidin-1-yl)-2-(2,6-dioxopiperidin-3-yl)isoindoline-1,3-dione], at GSPT1 protein, the inhibition at 0.1 µM amounted to 29% and the inhibition at 1 µM came out at 29%. Moreover, in the assay with HL-60 cells, the negative logarithm of the IC50 (pIC50) was under 6.00.

For the molecule `O=C1CCC(N2C(=O)c3ccc(N4CC(CCN5CCCN(c6cccc(-c7cnc8ccccc8c7)c6)C5=O)C4)cc3C2=O)C(=O)N1` (stereo not drawn) [Compound 23, 2-(2,6-dioxopiperidin-3-yl)-5-(3-(2-(2-oxo-3-(3-(quinolin-3-yl)phenyl)tetrahydropyrimidin-1(2H)-yl)ethyl)azetidin-1-yl)isoindoline-1,3-dione], at GSPT1 protein, 0.1 µM produced 33% inhibition and the inhibition at 1 µM came out at 45%. This molecule gave a pIC50 in the assay on HL-60 cells of under 6.00.

On GSPT1 protein, `O=C1CCC(N2C(=O)c3ccc(N4CC(CCN5CCCN(c6cccc(-c7cnc8[nH]ncc8c7)c6)C5=O)C4)cc3C2=O)C(=O)N1` (stereo not drawn) [Compound 25, 2-(2,6-dioxopiperidin-3-yl)-5-(3-{2-[2-oxo-3-(3-{1H-pyrazolo[3,4-b]pyridin-5-yl}phenyl)-1,3-diazinan-1-yl]ethyl}azetidin-1-yl)isoindole-1,3-dione] returned an inhibition at 0.1 µM of 55% and an inhibition at 1 µM of 57%. The negative-log IC50 (pIC50) in the assay on HL-60 cells is 6.86.

On GSPT1 protein, `CCc1c[nH]c2ccc(-c3cccc(N4CCCN(CCC5CN(c6ccc7c(c6)C(=O)N(C6CCC(=O)NC6=O)C7=O)C5)C4=O)c3)c(Cl)c12` (stereo not drawn) [Compound 26, 5-(3-(2-(3-(3-(4-chloro-3-ethyl-1H-indol-5-yl)phenyl)-2-oxotetrahydropyrimidin-1(2H)-yl)ethyl)azetidin-1-yl)-2-(2,6-dioxopiperidin-3-yl)isoindoline-1,3-dione] came in with an inhibition at 0.1 µM of 63% and an inhibition at 1 µM of 85%. This molecule also showed a pIC50 with HL-60 cells of 7.11.

On GSPT1 protein, `CCc1c[nH]c2ccc(-c3cccc(N4CCCN(CCC5CN(c6ccc7c(c6)C(=O)N(C6CCC(=O)NC6=O)C7=O)C5)C4=O)c3)nc12` (stereo not drawn) [Compound 27, 2-(2,6-dioxopiperidin-3-yl)-5-(3-{2-[3-(3-{3-ethyl-1H-pyrrolo[3,2-b]pyridin-5-yl}phenyl)-2-oxo-1,3-diazinan-1-yl]ethyl}azetidin-1-yl)isoindole-1,3-dione] yielded an inhibition at 0.1 µM of 45% and an inhibition at 1 µM of 70%. The same molecule gave a negative-log IC50 (pIC50) in the assay with HL-60 cells of 6.40.

As to `Nc1ccc(-c2cccc(N3CCCN(CC4CCN(c5ccc6c(c5)C(=O)N(C5CCC(=O)NC5=O)C6=O)CC4)C3=O)c2)c(Cl)n1` (stereo not drawn) [Compound 28, 5-[4-({3-[3-(6-amino-2-chloropyridin-3-yl)phenyl]-2-oxo-1,3-diazinan-1-yl}methyl)piperidin-1-yl]-2-(2,6-dioxopiperidin-3-yl)isoindole-1,3-dione], at GSPT1 protein, the inhibition at 0.1 µM was 77% and the inhibition at 1 µM was 78%. In the assay with HL-60 cells, this molecule showed a pIC50 of 7.29.

With `CCc1c(N)ccc(-c2cccc(N3CCCN(CC4CCN(c5ccc6c(c5)C(=O)N(C5CCC(=O)NC5=O)C6=O)CC4)C3=O)c2)c1Cl` (stereo not drawn) [Compound 29, 5-(4-((3-(4′-amino-2′-chloro-3′-ethyl-[1,1′-biphenyl]-3-yl)-2-oxotetrahydropyrimidin-1(2H)-yl)methyl)piperidin-1-yl)-2-(2,6-dioxopiperidin-3-yl)isoindoline-1,3-dione], at GSPT1 protein, the inhibition at 0.1 µM was found to be 45% and the inhibition at 1 µM amounted to 47%. This molecule had a pIC50 with HL-60 cells of 6.65.
